Measurements as given in the supplement of paper PMC10307832.

How the values were obtained:
Assay in all cases: relative viability (nuclei count vs DMSO), 5 days (fraction); higher = more cells survive
[1] = compound: COC1=CC=C(C=C1)CN2C=CC3=C2C=C(C=C3)C(=O)NO + Cc1cc(Nc2cc(N3CCN(C)CC3)nc(Sc3ccc(NC(=O)C4CC4)cc3)n2)n[nH]1 [Tozasertib] (partner 0.1 µM)
Outline: (§1)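 For relative viability, nuclei counts in treated wells were divided by those in vehicle wells. Lung cancer cell lines had been pin-tool dosed in 1536-well plates the day after seeding and cultured for 5 days, then fixed and stained in one step (final 0.05% Triton X-100, 1% formaldehyde, 1 ug/ml Hoechst) and imaged at 4×. Doses were one drug alone or a fixed anchor-drug dose plus five library-drug doses (not always all listed) in √10 steps, and values are duplicate-plate medians.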

Veliparib + Palbociclib = compound: C[C@]1(c2nc3c(C(N)=O)cccc3[nH]2)CCCN1 [Veliparib] + CC(=O)c1c(C)c2cnc(Nc3ccc(N4CCNCC4)cn3)nc2n(C2CCCC2)c1=O [Palbociclib] (partner 0.5 µM)
Outline: as §1

Veliparib + Linsitinib = compound: C[C@]1(c2nc3c(C(N)=O)cccc3[nH]2)CCCN1 [Veliparib] + C[C@]1(O)C[C@@H](c2nc(-c3ccc4ccc(-c5ccccc5)nc4c3)c3c(N)nccn32)C1 [Linsitinib] (partner 1 µM)
Outline: as §1

Veliparib + Navitoclax = compound: C[C@]1(c2nc3c(C(N)=O)cccc3[nH]2)CCCN1 [Veliparib] + CC1(C)CCC(c2ccc(Cl)cc2)=C(CN2CCN(c3ccc(C(=O)NS(=O)(=O)c4ccc(N[C@H](CCN5CCOCC5)CSc5ccccc5)c(S(=O)(=O)C(F)(F)F)c4)cc3)CC2)C1 [Navitoclax] (partner 0.5 µM)
Outline: as §1

## NCI-H1915
[1]; first compound 0.08 µM
  relative viability: 0.259
[1]; first compound 0.253 µM
  relative viability: 0.431
[1]; first compound 0.8 µM
  relative viability: 0.422
[1]; first compound 2.53 µM
  relative viability: 0.355
[1]; first compound 8 µM
  relative viability: 0.401
Veliparib + Palbociclib; first compound 0.02 µM
  relative viability: 0.541
Veliparib + Palbociclib; first compound 0.06325 µM
  relative viability: 0.461
Veliparib + Palbociclib; first compound 0.2 µM
  relative viability: 0.519
Veliparib + Palbociclib; first compound 0.6325 µM
  relative viability: 0.512
Veliparib + Palbociclib; first compound 2 µM
  relative viability: 0.504
Veliparib + Linsitinib; first compound 0.02 µM
  relative viability: 1.07
Veliparib + Linsitinib; first compound 0.06325 µM
  relative viability: 1.07
Veliparib + Linsitinib; first compound 0.2 µM
  relative viability: 1.02
Veliparib + Linsitinib; first compound 0.6325 µM
  relative viability: 0.954
Veliparib + Linsitinib; first compound 2 µM
  relative viability: 0.995
Veliparib + Navitoclax; first compound 0.02 µM
  relative viability: 0.766
Veliparib + Navitoclax; first compound 0.06325 µM
  relative viability: 0.759
Veliparib + Navitoclax; first compound 0.2 µM
  relative viability: 0.706
Veliparib + Navitoclax; first compound 0.6325 µM
  relative viability: 0.703
Veliparib + Navitoclax; first compound 2 µM
  relative viability: 0.67

## CAL-12T
[1]; first compound 0.08 µM
  relative viability: 0.293
[1]; first compound 0.253 µM
  relative viability: 0.344
[1]; first compound 0.8 µM
  relative viability: 0.362
[1]; first compound 2.53 µM
  relative viability: 0.328
[1]; first compound 8 µM
  relative viability: 0.323
Veliparib + Palbociclib; first compound 0.02 µM
  relative viability: 0.179
Veliparib + Palbociclib; first compound 0.06325 µM
  relative viability: 0.301
Veliparib + Palbociclib; first compound 0.2 µM
  relative viability: 0.402
Veliparib + Palbociclib; first compound 0.6325 µM
  relative viability: 0.382
Veliparib + Palbociclib; first compound 2 µM
  relative viability: 0.58
Veliparib + Linsitinib; first compound 0.02 µM
  relative viability: 0.356
Veliparib + Linsitinib; first compound 0.06325 µM
  relative viability: 0.823
Veliparib + Linsitinib; first compound 0.2 µM
  relative viability: 0.775
Veliparib + Linsitinib; first compound 0.6325 µM
  relative viability: 0.765
Veliparib + Linsitinib; first compound 2 µM
  relative viability: 0.817
Veliparib + Navitoclax; first compound 0.02 µM
  relative viability: 1.38
Veliparib + Navitoclax; first compound 0.06325 µM
  relative viability: 1.03
Veliparib + Navitoclax; first compound 0.2 µM
  relative viability: 1.3
Veliparib + Navitoclax; first compound 0.6325 µM
  relative viability: 1.2
Veliparib + Navitoclax; first compound 2 µM
  relative viability: 1.32

## NCI-H1437
[1]; first compound 0.08 µM
  relative viability: 0.321
[1]; first compound 0.253 µM
  relative viability: 0.446
[1]; first compound 0.8 µM
  relative viability: 0.395
[1]; first compound 2.53 µM
  relative viability: 0.42
[1]; first compound 8 µM
  relative viability: 0.409
Veliparib + Palbociclib; first compound 0.02 µM
  relative viability: 0.304
Veliparib + Palbociclib; first compound 0.06325 µM
  relative viability: 0.323
Veliparib + Palbociclib; first compound 0.2 µM
  relative viability: 0.281
Veliparib + Palbociclib; first compound 0.6325 µM
  relative viability: 0.362
Veliparib + Palbociclib; first compound 2 µM
  relative viability: 0.335
Veliparib + Linsitinib; first compound 0.02 µM
  relative viability: 1.01
Veliparib + Linsitinib; first compound 0.06325 µM
  relative viability: 1.04
Veliparib + Linsitinib; first compound 0.2 µM
  relative viability: 1.02
Veliparib + Linsitinib; first compound 0.6325 µM
  relative viability: 1.03
Veliparib + Linsitinib; first compound 2 µM
  relative viability: 1.08
Veliparib + Navitoclax; first compound 0.02 µM
  relative viability: 1.02
Veliparib + Navitoclax; first compound 0.06325 µM
  relative viability: 0.997
Veliparib + Navitoclax; first compound 0.2 µM
  relative viability: 1.13
Veliparib + Navitoclax; first compound 0.6325 µM
  relative viability: 1.08
Veliparib + Navitoclax; first compound 2 µM
  relative viability: 1.05

## UMC-11
[1]; first compound 0.253 µM
  relative viability: 0.204
[1]; first compound 0.8 µM
  relative viability: 0.215
[1]; first compound 2.53 µM
  relative viability: 0.215
[1]; first compound 8 µM
  relative viability: 0.223
Veliparib + Palbociclib; first compound 0.02 µM
  relative viability: 0.314
Veliparib + Palbociclib; first compound 0.06325 µM
  relative viability: 0.303
Veliparib + Palbociclib; first compound 0.2 µM
  relative viability: 0.318
Veliparib + Palbociclib; first compound 0.6325 µM
  relative viability: 0.331
Veliparib + Palbociclib; first compound 2 µM
  relative viability: 0.368
Veliparib + Linsitinib; first compound 0.02 µM
  relative viability: 1.06
Veliparib + Linsitinib; first compound 0.06325 µM
  relative viability: 1
Veliparib + Linsitinib; first compound 0.2 µM
  relative viability: 1.08
Veliparib + Linsitinib; first compound 0.6325 µM
  relative viability: 0.963
Veliparib + Linsitinib; first compound 2 µM
  relative viability: 0.961
Veliparib + Navitoclax; first compound 0.02 µM
  relative viability: 0.345
Veliparib + Navitoclax; first compound 0.06325 µM
  relative viability: 0.312
Veliparib + Navitoclax; first compound 0.2 µM
  relative viability: 0.369
Veliparib + Navitoclax; first compound 0.6325 µM
  relative viability: 0.324
Veliparib + Navitoclax; first compound 2 µM
  relative viability: 0.331

## HCC-44
[1]; first compound 0.08 µM
  relative viability: 0.803
[1]; first compound 0.253 µM
  relative viability: 0.909
[1]; first compound 0.8 µM
  relative viability: 0.946
[1]; first compound 2.53 µM
  relative viability: 0.863
[1]; first compound 8 µM
  relative viability: 0.792
Veliparib + Palbociclib; first compound 0.02 µM
  relative viability: 1
Veliparib + Palbociclib; first compound 0.06325 µM
  relative viability: 0.834
Veliparib + Palbociclib; first compound 0.2 µM
  relative viability: 0.996
Veliparib + Palbociclib; first compound 0.6325 µM
  relative viability: 0.964
Veliparib + Palbociclib; first compound 2 µM
  relative viability: 1.01
Veliparib + Linsitinib; first compound 0.02 µM
  relative viability: 0.665
Veliparib + Linsitinib; first compound 0.06325 µM
  relative viability: 0.5
Veliparib + Linsitinib; first compound 0.2 µM
  relative viability: 0.636
Veliparib + Linsitinib; first compound 0.6325 µM
  relative viability: 0.622
Veliparib + Linsitinib; first compound 2 µM
  relative viability: 0.694
Veliparib + Navitoclax; first compound 0.02 µM
  relative viability: 1.05
Veliparib + Navitoclax; first compound 0.06325 µM
  relative viability: 0.846
Veliparib + Navitoclax; first compound 0.2 µM
  relative viability: 1.02
Veliparib + Navitoclax; first compound 0.6325 µM
  relative viability: 0.798
Veliparib + Navitoclax; first compound 2 µM
  relative viability: 0.967
